In patent US7524851B2 (Robert Bosch Gesellschaft fur Medizinische Forschung (RBMF), priority 2003, dated 2009):

How the values were obtained:
[1] = system: primary CD4+ T lymphocytes; experiment: Annexin V/propidium iodide FACS apoptosis of stimulated primary blood CD4+ T lymphocytes; type: cell-based, human; settings: for apoptosis induction during the first 2 days after administration: kinetic studies; for apoptosis of primary blood CD4+ T lymphocytes: day 5
Text: Isolation of primary CD4^+ T lymphocytes and lamina propria cells: Human peripheral blood mononuclear cells (PBMCs) from healthy volunteers (25-42 years of age) and patients with Crohn's disease (31-65 years of age) were isolated using Ficoll-Hypaque gradients. PBMCs were further purified using CD4 monoclonal antibodies attached to immunomagnetic beads according to the manufacturer's protocol, followed by treatment with Detachabead (Dynal; Oslo, Norway). In some cases, CD4^+ T cells were further separated by negative selection techniques using CD45RO or CD45RA monoclonal antibodies (PharMingen; Heidelberg, Germany) and immunomagnetic beads (Dynal). […] Lamina propria mononuclear cells (LPMCs) from patients with IBD were isolated from gut specimens using a short-term (5-minute) digestion protocol with collagenase V, hyaluronidase (Sigma-Aldrich; St. Louis, Mo., USA), and DNase (Roche; Mannheim, Germany), as recently described in detail in Holtmann et al., Eur. J. Immunol. 32:3142-3151 (2002). Briefly, specimens were washed in calcium- and magnesium-free HBSS (HBSS-CMF), cut into 0.5-cm pieces, and incubated twice in HBSS containing EDTA (0.37 mg/ml) and DTT (0.145 mg/ml) at 37° C. for 15 minutes, followed by subsequent digestion for 5 minutes with collagenase V 400 (1 mg/ml), deoxyribonuclease (0.1 mg/ml DNase), and hyaloronidase (0.1 mg/ml) in a shaking incubator at 37° C. The digested tissue was washed twice in RPMI medium containing 10% FCS and centrifuged. The tissue was finally mechanically homogenized (DAKO homogenizer; Hamburg, Germany) for 4 minutes, and cells were filtered through a sterile 40-μm cell strainer (Falcon; San Diego, Calif., USA).
Such CD28 costimulation is known to prevent apoptosis of primary T cells during T cell receptor (TCR) stimulation through activation of bcl-x, and NF-κB (Noel et al., J. Immunol. 157:636-647 (1996); Radvanyi et al., J. Immunol. 156:1788-1798 (1996); Khoshnan et al., J. Immunol. 165:1743-1754 (2000)). […] In addition, recombinant IL-2 (R&D Systems; Wiesbaden, Germany) was used at a final concentration of 40 U/ml in all experiments. Lamina propria T lymphocytes were stimulated with antibodies to CD2 (4 μg/ml; Immunotech; Marseille, France) and CD28 (1 μg/ml). […] To block CD95L-mediated (FasL-mediated) apoptosis, the NOK-1 antibody (4 μg/ml, PharMingen) was used whose Fab fragments bind to human CD95L (FasL) (Jodo et al., J. Immunol. 165:5487-5494 (2000)). Recombinant human FasL (Alexis Biochemicals; Heidelberg, Germany) was used as a positive control for the NOK-1 antibody (10 μg/ml).
For FACS analysis, apoptotic cells were detected by staining with annexin V and propidium iodide using the Annexin V FITC Apoptosis Detection Kit I (PharMingen) (Atreya et al., Nat. Med. 6:583-588 (2000)). In brief, T cells were washed twice in PBS, and the pellet was resuspended in annexin V binding buffer (PharMingen) at a concentration of 10^6 cells per milliliter. Annexin V FITC and propidium iodide were added (5 ill of each per 10^5 cells). Samples were gently mixed and incubated for 15 minutes at room temperature in the dark before FACS analysis. To verify the results obtained with the annexin V/propidium iodide staining, analysis of T cells displaying DNA fragmentation was also determined by the Nicoletti technique, as described in (Nicoletti et al., J. Immunol. Methods 139:271-279 (1991)). 10^6 T cells were fixed in 70% ethanol, washed once in HBSS, resuspended in 1 ml of HBSS and 1 ml of phosphate citric acid buffer (0.2 mol/l Na2PO4 and 0.004 mol/l citric acid [pH 7.8]), and incubated at room temperature for 5 minutes. After centrifugation, cells were resuspended in 1 ml of HBSS containing 20 μg/ml propidium iodide and 10 U DNase-free RNase A and incubated at room temperature for 30 minutes. Finally, cells were analyzed on a FACScan flow cytometer. Because of the fragmentation of DNA, apoptotic cells appear as hypodiploid in the DNA histogram.

CD45RA T cells = experiment: Annexin V/propidium iodide FACS apoptosis of stimulated CD45RA T cells; type: cell-based, human; settings: rIL-2, anti-CD3 plus anti-CD28; after 5 days
Text: (§1) Isolation of primary CD4^+ T lymphocytes and lamina propria cells: Human peripheral blood mononuclear cells (PBMCs) from healthy volunteers (25-42 years of age) and patients with Crohn's disease (31-65 years of age) were isolated using Ficoll-Hypaque gradients. PBMCs were further purified using CD4 monoclonal antibodies attached to immunomagnetic beads according to the manufacturer's protocol, followed by treatment with Detachabead (Dynal; Oslo, Norway). In some cases, CD4^+ T cells were further separated by negative selection techniques using CD45RO or CD45RA monoclonal antibodies (PharMingen; Heidelberg, Germany) and immunomagnetic beads (Dynal). […]
(§2) For FACS analysis, apoptotic cells were detected by staining with annexin V and propidium iodide using the Annexin V FITC Apoptosis Detection Kit I (PharMingen) (Atreya et al., Nat. Med. 6:583-588 (2000)). […] To verify the results obtained with the annexin V/propidium iodide staining, analysis of T cells displaying DNA fragmentation was also determined by the Nicoletti technique, as described in (Nicoletti et al., J. Immunol. Methods 139:271-279 (1991)). […] Finally, cells were analyzed on a FACScan flow cytometer. […]

[2] = system: peripheral blood CD4+ T cells; experiment: Apoptotic blood T cells from IBD patients receiving azathioprine/6-MP; type: in vivo, human; settings: for number of apoptotic blood T cells: treated IBD patients vs untreated patients before therapy, cells stimulated with CD28 in culture, P<0.05
Text: FIG. 3. […] (a) LPMCs were isolated and stimulated with anti-CD2/CD28 plus IL-2 in the presence or absence of 6-MP for 5 days followed by FACS analysis. […] Data represent mean values±SEM from eight patients with IBD per group. […] Data are representative of 5-13 patients per group. Magnification, ×20 (bar=100 μm) (ce) and ×40 (bar=50 μm) (f-h). (i) Quantification of the percentage of apoptotic, TUNEL-positive LPMCs in patients with IBD receiving 6-MP as compared with untreated control patients. […] Data are mean values±SEM of 5-13 patients per group.
Isolation of primary CD4^+ T lymphocytes and lamina propria cells: Human peripheral blood mononuclear cells (PBMCs) from healthy volunteers (25-42 years of age) and patients with Crohn's disease (31-65 years of age) were isolated using Ficoll-Hypaque gradients. PBMCs were further purified using CD4 monoclonal antibodies attached to immunomagnetic beads according to the manufacturer's protocol, followed by treatment with Detachabead (Dynal; Oslo, Norway). In some cases, CD4^+ T cells were further separated by negative selection techniques using CD45RO or CD45RA monoclonal antibodies (PharMingen; Heidelberg, Germany) and immunomagnetic beads (Dynal). […] Lamina propria mononuclear cells (LPMCs) from patients with IBD were isolated from gut specimens using a short-term (5-minute) digestion protocol with collagenase V, hyaluronidase (Sigma-Aldrich; St. Louis, Mo., USA), and DNase (Roche; Mannheim, Germany), as recently described in detail in Holtmann et al., Eur. J. Immunol. 32:3142-3151 (2002). […]
For FACS analysis, apoptotic cells were detected by staining with annexin V and propidium iodide using the Annexin V FITC Apoptosis Detection Kit I (PharMingen) (Atreya et al., Nat. Med. 6:583-588 (2000)). […]

CD45RO memory T cells = experiment: Annexin V/propidium iodide FACS apoptosis of stimulated CD45RO T cells; type: cell-based, human; settings: rIL-2, anti-CD3 plus anti-CD28; 5 days; more pronounced than in CD45RA T cells
Text: as §1, §2

[3] = stimulated through the TCR/CD3 complex plus CD28
[4] = stimulated with anti-CD3 antibodies alone

Row | Structure (SMILES) | apoptosis induction during the first 2 days after administration [1] | apoptosis of primary blood CD4+ T lymphocytes [1, 3] | apoptosis of primary blood CD4+ T lymphocytes [1, 4] | induction of annexin V-positive, propidium iodide-negative naive CD45RA T cells (CD45RA T cells) | further increase in percentage of apoptotic cells on additional 6-MP in vitro ([2]; T cells from 6-MP-treated patients) | number of apoptotic blood T cells [2] | apoptosis of CD45RO memory T cells (CD45RO memory T cells) | concentration at which T cell apoptosis occurred ([1]; FIGS. 1a and 1b) [µM] | apoptosis of already preactivated T lymphocytes ([1]; drug added at day 5, annexin V/propidium iodide at day 10)
1 | Sc1ncnc2nc[nH]c12 [6-MP, 6-mercaptopurine] | no apoptosis induction | induced apoptosis | no apoptosis | significant induction | did not cause a further significant increase | significant increase | induced apoptosis |  | 
2 | Cn1cnc([N+](=O)[O-])c1Sc1ncnc2nc[nH]c12 [azathioprine, Azathioprine] | no apoptosis induction | induced apoptosis | no apoptosis | significant induction |  | significant increase | induced apoptosis | 5 | induced apoptosis
